Measured values: patent US12304917B1, “Pleuromutilin derivative containing a thiazolo[5,4-c]pyridine side chain, and a preparation method and application thereof” (SHAANXI UNIVERSITY OF SCIENCE AND TECHNOLOGY, priority 2024, dated 2025)
≈ marks a conversion by molar mass, not a printed value. Where two headings read alike, the source gives them in different places.

Experiments:
[1] = Solubility experiment (equilibrium solubility); conditions: thermodynamic from solid
S. enterica ATCC14028 = assay: MIC by broth microdilution; conditions: Salmonella enterica, ATCC14028, 24 h, read-out: Minimum inhibitory concentration S.e.^g
E. coli CMCC 44103 = assay: MIC by broth microdilution; conditions: Escherichia coli, CMCC44103, 24 h, read-out: Minimum inhibitory concentration E.c.^i
S. aureus ATCC 29213 = assay: MIC by broth microdilution; conditions: Staphylococcus aureus, ATCC29213, 24 h, read-out: Minimum inhibitory concentration S.a.^d
[2] = tested on: Methicillin-resistant S. aureus ATCC 33591; assay: MIC by broth microdilution; conditions: Staphylococcus aureus, ATCC33591|MRSA, 24 h, read-out: Minimum inhibitory concentration MRSA^b
E. coli ATCC 25922 = assay: MIC by broth microdilution; conditions: Escherichia coli, ATCC25922, 24 h, read-out: Minimum inhibitory concentration E.c.^h
[3] = tested on: Methicillin-resistant S. aureus ATCC 43300; assay: MIC by broth microdilution; conditions: Staphylococcus aureus, ATCC43300|MRSA, 24 h, read-out: Minimum inhibitory concentration MRSA^c
[4] = tested on: Methicillin-resistant S. epidermidis ATCC 51625; assay: MIC by broth microdilution; conditions: Staphylococcus epidermidis, ATCC51625|MRSE, 24 h, read-out: Minimum inhibitory concentration MRSE^e
A. baumannii ATCC 19606 = assay: MIC by broth microdilution; conditions: Acinetobacter baumannii, ATCC19606, 24 h, read-out: Minimum inhibitory concentration A.b.^f
[5] = tested on: multidrug-resistant Pseudomonas aeruginosa-126; assay: MIC against clinical isolate; assay type: cell-based
Description: (§1) The Specific Steps are as Follows:

[6] = tested on: methicillin-resistant Staphylococcus aureus-575; assay: MIC against clinical isolate; assay type: cell-based
Description: as §1

[7] = tested on: methicillin-resistant Staphylococcus aureus-206; assay: MIC against clinical isolate; assay type: cell-based
Description: as §1

[8] = tested on: vancomycin-resistant Enterococcus-80; assay: MIC against clinical isolate; assay type: cell-based
Description: as §1

[9] = tested on: carbapenem-resistant Acinetobacter baumannii-882; assay: MIC against clinical isolate; assay type: cell-based
Description: as §1

[10] = tested on: methicillin-resistant Staphylococcus aureus-596; assay: MIC against clinical isolate; assay type: cell-based
Description: as §1

[11] = tested on: multidrug-resistant Klebsiella pneumoniae-893; assay: MIC against clinical isolate; assay type: cell-based; conditions: clinical isolate MDR-KP-893
Description: as §1

[12] = tested on: methicillin-resistant Staphylococcus aureus-222; assay: MIC against clinical isolate; assay type: cell-based; conditions: MRSA / MRSE
Description: as §1

[13] = tested on: methicillin-resistant Staphylococcus aureus-171; assay: MIC against clinical isolate; assay type: cell-based
Description: as §1

A549 cells [14] = assay: Cell Counting Kit-8 cytotoxicity; conditions: read-out: CC50 A549 Cells; CCK-8, 24 hours incubation
[15] = tested on: HepG2 cells, HEK293 cells and A549 cells; assay: Cell Counting Kit-8 cytotoxicity, all tested cells as summarised in text; conditions: at a concentration of 100 μM
HepG2 cells [16] = assay: Cell Counting Kit-8 cytotoxicity; conditions: read-out: CC50 HepG2 Cells; CCK-8, 24 hours incubation
[17] = tested on: Gram-positive and Gram-negative bacteria; assay: MIC, panel of TABLE 1 strains as summarised in text; conditions: comparison of MIC with positive control drugs
[18] = Cell Counting Kit-8 cytotoxicity; conditions: human
[19] = Cell Counting Kit-8 cytotoxicity; conditions: human, HepG2 cells
HEK293 cells [20] = assay: Cell Counting Kit-8 cytotoxicity; conditions: read-out: CC50 HEK293 Cells; CCK-8, 24 hours incubation
[21] = tested on: five clinical MRSA isolates, including MRSA-171, MRSA-575, MRSA-206, MRSA-222, and MRSA-596; assay: MIC, five clinical MRSA isolates as summarised in text; assay type: cell-based, Staphylococcus aureus; conditions: MRSA-171, MRSA-575, MRSA-206, MRSA-222, MRSA-596
Description: as §1

physchem = conditions: thermodynamic from solid
HEK293 cells [22] = conditions: human, 24 h
HepG2 cells [23] = conditions: human, 24 h
A549 cells [24] = conditions: human, 24 h

SMILES | MIC (S. enterica ATCC14028) [µg/mL] | MIC (E. coli CMCC 44103) [µg/mL] | MIC (S. aureus ATCC 29213) [µg/mL] | MIC [2] [µg/mL] | MIC (E. coli ATCC 25922) [µg/mL] | MIC [3] [µg/mL] | MIC [4] [µg/mL] | MIC (A. baumannii ATCC 19606) [µg/mL] | Antibacterial activity (MIC) MDR-KP^i [11] [µg/mL] | CC50 (A549 cells [14]) [µM] | toxicity to the tested cells (in words) [15] | antibacterial activity compared to valnemulin and retapamulin (in words) [17] | solubility (physchem) [µM] | other results
C=C[C@]1(C)C[C@@H](OC(=O)CSc2nc3cc[n+](Cc4ccc([N+](=O)[O-])cc4)cc3s2)[C@]2(C)[C@H](C)CC[C@]3(CCC(=O)[C@H]32)[C@@H](C)[C@@H]1O [Compound I-6, 5-(4-nitrobenzyl)-2-((2-(((3aR,4R,5R,7S,8S,9R,9aS,12R)-8-hydroxy-4,7,9,12-tetramethyl-3-oxo-7-vinyldecahydro-4,9a-propancyclopenta[8]cyclo-5-yl)oxy)-2-oxoethyl)thio)thiazolo[5,4-c]pyridin-5-ium] | 16 | 32 | 32 | 16 | 8 | 4 | 16 | 16 |  |  |  |  |  | solubility [1]: 887 µM
C=C[C@]1(C)C[C@@H](OC(=O)CSc2nc3cc[n+](Cc4ccc(C#N)cc4)cc3s2)[C@]2(C)[C@H](C)CC[C@]3(CCC(=O)[C@H]32)[C@@H](C)[C@@H]1O [Compound I-8, 5-(4-cyanobenzyl)-2-((2-(((3aR,4R,5R,7S,8S,9R,9aS,12R)-8-hydroxy-4,7,9,12-tetramethyl-3-oxo-7-vinyldecahydro-4,9a-propancyclopenta[8]cyclo-5-yl)oxy)-2-oxoethyl)thio)thiazolo[5,4-c]pyridin-5-ium] | 2 | 2 | 0.5 | 1 | 1 | 1 | 2 | 1 | 16 | > 100 | low toxicity | good antibacterial activity |  | MIC ([5]; read-out: Antibacterial activity (MIC) MDR-PA^h): 32 µg/mL; MIC ([6]; MRSA, read-out: Antibacterial activity (MIC) MRSA^c): 32 µg/mL; MIC ([7]; MRSA, read-out: Antibacterial activity (MIC) MRSA^d): 64 µg/mL; MIC ([8]; VRE, read-out: Antibacterial activity (MIC) VRE^g): 16 µg/mL; MIC ([9]; read-out: Antibacterial activity (MIC) CR-AB^j): 64 µg/mL; MIC ([10]; MRSA, read-out: Antibacterial activity (MIC) MRSA^f): 8 µg/mL; MIC ([12]; read-out: Antibacterial activity (MIC) MRSE^e): 16 µg/mL; MIC ([13]; MRSA, read-out: Antibacterial activity (MIC) MRSA^b): 16 µg/mL; CC50 (HepG2 cells [16]): 78.5 µM; CC50 at 24 h [18]: 79.2 µM
C=C[C@]1(C)C[C@@H](OC(=O)CSc2nc3cc[n+](Cc4ccc(C)cc4)cc3s2)[C@]2(C)[C@H](C)CC[C@]3(CCC(=O)[C@H]32)[C@@H](C)[C@@H]1O [Compound I-9, 5-(4-methylbenzyl)-2-((2-(((3aR,4R,5R,7S,8S,9R,9aS,12R)-8-hydroxy-4,7,9,12-tetramethyl-3-oxo-7-vinyldecahydro-4,9a-propancyclopenta[8]cyclo-5-yl)oxy)-2-oxoethyl)thio)thiazolo[5,4-c]pyridin-5-ium] | 0.25 | 0.125 | 0.125 | 0.25 | 0.25 | 0.25 | 0.25 | 0.5 | 2 | > 100 | low toxicity | most advantageous antibacterial activity | 812 | MIC ([5]; clinical isolate MDR-PA-126, read-out: Antibacterial activity (MIC) MDR-PA^h): 8 µg/mL; MIC ([6]; clinical isolate MRSA-575, read-out: Antibacterial activity (MIC) MRSA^c): 4 µg/mL; MIC ([7]; clinical isolate MRSA-206, read-out: Antibacterial activity (MIC) MRSA^d): 2 µg/mL; MIC ([8]; clinical isolate VRE-80, read-out: Antibacterial activity (MIC) VRE^g): 8 µg/mL; MIC ([9]; clinical isolate CR-AB-882, read-out: Antibacterial activity (MIC) CR-AB^j): 4 µg/mL; MIC ([10]; clinical isolate MRSA-596, read-out: Antibacterial activity (MIC) MRSA^f): 8 µg/mL; MIC ([12]; clinical isolate, footnote e: MRSA-222, read-out: Antibacterial activity (MIC) MRSE^e): 4 µg/mL; MIC ([13]; clinical isolate MRSA-171, read-out: Antibacterial activity (MIC) MRSA^b): 8 µg/mL; CC50 at 24 h [19]: 66.4 µM; CC50 (HEK293 cells [20]): 82.1 µM; MIC, range over five clinical MRSA isolates [21]: 2 to 8 µg/mL
C=C[C@]1(C)C[C@@H](OC(=O)CSC(C)(C)CNC(=O)[C@H](N)C(C)C)[C@]2(C)[C@H](C)CC[C@]3(CCC(=O)[C@H]32)[C@@H](C)[C@@H]1O [Valnemulin, valnemulin, reference compound] | 64 (≈ 113 µM) | 64 (≈ 113 µM) | 4 (≈ 7.08 µM) |  | 16 (≈ 28.3 µM) |  |  | 2 (≈ 3.54 µM) |  |  |  |  | 386 (≈ 218 µg/mL) | CC50 (HEK293 cells [22]): 65.4 µM; CC50 (HepG2 cells [23]): 77.3 µM; CC50 (A549 cells [24]): 53.7 µM
